Source: patent US6949553B2, “Aliphatic compounds, their synthesis method, and utilization of the same” (Maruha Corporation, priority 2001, dated 2005)

Key:
mice = assay: Collagen-induced mouse sudden death model; format: in vivo; conditions: 30 μg/kg intravenous 1 hour before 37.5 mg/kg collagen; survival one hour later
Procedure: As a preliminary study of the effect of the compounds of the present invention on an in vivo pathophysiological model, it was investigated whether the compound of the present invention would suppress collagen-induced mouse sudden death. In this model, pulmonary capillaries are obstructed by a large amount of collagen, and a sudden death is caused by oxygen deficiency.
One hour after a solvent (physiological saline) or 30 μg/kg of Compound 2 was intravenously administered to mice, 37.5 mg/kg of collagen was administered to the caudal vein. One hour later, the survival rate was compared between the groups.

[1] = tested on: neutrophils and vascular endothelial cells; assay: Pseudo-blood vessel in vitro inflammation model (TNFα, neutrophil migration through endothelial cell layer); format: cell-based, bovine; conditions: 30, 3 or 0.3 μM, TNFα 50 ng/ml
Procedure: A layer of bovine endothelial cells was adhered to the bottom surface of the membrane, and cultured for 80 minutes at 37° C. in 5% CO2. Then, a suspension of fluorescence-labeled neutrophils was added to the upper chamber of the transwell. Simultaneously, TNFα was suspended in the cell suspension in the upper chamber to an end concentration of 50, 25 or 17 ng/ml.
That is, in the above model, the phenomena that neutrophils pass from the upper chamber through the vascular endothelial cell layer into the lower chamber, and neutrophils adhere to the endothelial cell layer mimic a state where in response to TNFα within the blood vessel, neutrophils migrate from within the blood vessel to the site of inflammation.
In the same manner as described above, the number of neutrophils passing from the upper chamber through the vascular endothelial cell layer into the lower chamber, and the number of neutrophils adhering to the endothelial cell layer were measured. Based on these numbers, the neutrophil migration rate (%) was calculated. The neutrophil migration rate was expressed as the relative value (%) of the number of the migrating neutrophils in the drug treatment group with respect to the number of the migrating neutrophils in the negative control group (physiological saline).

human platelets = assay: Human in vitro platelet aggregation; format: cell-based; conditions: inducer Serotonin + ADP, (0.25˜1) μM + (0.05˜0.25) μM, read-out: 50% inhibition point, IC50, against human in vitro platelet aggregation

In the case of `CC/C=C\C/C=C\C/C=C\C/C=C\C/C=C\C/C=C\CCC(=O)NCCC1CCCN1C` (racemic) [Compound 2, (4Z,7Z,10Z,13Z,16Z,19Z)-N-[2-(1-methylpyrrolidin-2-yl)ethyl]docosahexaenoamide], the Survival rate (mice) is reported as 7/10, the “neutrophil passage through vascular endothelial cell layer (in words)” value [1] is reported as “suppressed neutrophil passage dose-dependently” and the IC50 (human platelets) is reported as 3 µM.
